SMILES strings stand for the structures.

We go through nine compounds from ChEMBL document CHEMBL1159140, “DuP 747: sar study” (1992).

The species named for assay [1] is Mus musculus. The experiment in a line: animal or person. It counts as functional. To be noted: po.
Assay [2] is filed under the species Mus musculus. In words: animal or person. The conditions noted are these: sc. Type of assay: functional.

As usually defined, the ED50 is the dose that gives a 50% effect, or the effect in half of the subjects. For `COc1cccc2c1CC[C@H](N1CCCC1)[C@H]2N(C)C(=O)CSc1ccc(Cl)c(Cl)c1.Cl`, the ED50 in the assay filed under Mus musculus [1] was above 81 mg/kg; in the assay listed under Mus musculus [2], 47 mg/kg.
In the case of `COc1cccc2c1CC[C@H](N1CCCC1)[C@H]2N(C)C(=O)CCc1ccc(Cl)c(Cl)c1.Cl`, the 50% effective dose (ED50) in the assay listed under Mus musculus [1] was determined as 81 mg/kg; in the assay listed under Mus musculus [2], 38 mg/kg.
For `CN(C(=O)Cc1ccc(Cl)c(Cl)c1)[C@H]1c2cccc(OC(=O)c3ccccc3)c2CC[C@@H]1N1CCCC1.Cl` the same measures were 6.4 mg/kg and 0.71 mg/kg.
Regarding `COc1ccc2c(c1)CC[C@H](N1CC=CC1)[C@H]2N(C)C(C)=O.Cl`, the ED50 in the assay listed under Mus musculus [1] is 3.4 mg/kg; in the assay filed under Mus musculus [2] it was 0.24 mg/kg.
Turning to `COc1ccc2c(c1)CC[C@H](N1CCCCC1)[C@H]2N(C)C(C)=O.Cl`, the 50% effective dose (ED50) in the assay filed under Mus musculus [1] and in the assay listed under Mus musculus [2] was above 81 mg/kg each time.
As to `COc1ccc2c(c1)CC[C@H](N1C=CN(C)CC1)[C@H]2N(C)C(C)=O.Cl`, the median effective dose (ED50) in the assay listed under Mus musculus [1] and in the assay filed under Mus musculus [2] was above 81 mg/kg throughout.
In the case of `COc1ccc2c(c1)CC[C@H](N1CCCC1)[C@H]2N(C)C=O.Cl`, the ED50 in the assay filed under Mus musculus [1] came out at 81 mg/kg; in the assay filed under Mus musculus [2], 47 mg/kg.
Take `CN(C(=O)Cc1ccc(Cl)c(Cl)c1)[C@H]1c2ccccc2-c2ccccc2[C@@H]1N1CCCC1.Cl`: the median effective dose (ED50) in the assay filed under Mus musculus [1] and in the assay filed under Mus musculus [2] was above 81 mg/kg in each case.
Take `CN(C(=O)Cc1ccc(Cl)c(Cl)c1)[C@H]1CCc2ccccc2[C@@H]1N1CCCC1.Cl`: the ED50 was above 81 mg/kg in the assay filed under Mus musculus [1] and 0.16 mg/kg in the assay listed under Mus musculus [2].
